Consider 1 compound from patent US7629367B2, “N-(2-benzyl)-2-phenylbutanamides as androgen receptor modulators” (Merck & Co., Inc., priority 2004, dated 2009).

This experiment addresses T1, androgen receptor (Homo sapiens, UniProt P10275).
T1 sequence (P10275 1-920): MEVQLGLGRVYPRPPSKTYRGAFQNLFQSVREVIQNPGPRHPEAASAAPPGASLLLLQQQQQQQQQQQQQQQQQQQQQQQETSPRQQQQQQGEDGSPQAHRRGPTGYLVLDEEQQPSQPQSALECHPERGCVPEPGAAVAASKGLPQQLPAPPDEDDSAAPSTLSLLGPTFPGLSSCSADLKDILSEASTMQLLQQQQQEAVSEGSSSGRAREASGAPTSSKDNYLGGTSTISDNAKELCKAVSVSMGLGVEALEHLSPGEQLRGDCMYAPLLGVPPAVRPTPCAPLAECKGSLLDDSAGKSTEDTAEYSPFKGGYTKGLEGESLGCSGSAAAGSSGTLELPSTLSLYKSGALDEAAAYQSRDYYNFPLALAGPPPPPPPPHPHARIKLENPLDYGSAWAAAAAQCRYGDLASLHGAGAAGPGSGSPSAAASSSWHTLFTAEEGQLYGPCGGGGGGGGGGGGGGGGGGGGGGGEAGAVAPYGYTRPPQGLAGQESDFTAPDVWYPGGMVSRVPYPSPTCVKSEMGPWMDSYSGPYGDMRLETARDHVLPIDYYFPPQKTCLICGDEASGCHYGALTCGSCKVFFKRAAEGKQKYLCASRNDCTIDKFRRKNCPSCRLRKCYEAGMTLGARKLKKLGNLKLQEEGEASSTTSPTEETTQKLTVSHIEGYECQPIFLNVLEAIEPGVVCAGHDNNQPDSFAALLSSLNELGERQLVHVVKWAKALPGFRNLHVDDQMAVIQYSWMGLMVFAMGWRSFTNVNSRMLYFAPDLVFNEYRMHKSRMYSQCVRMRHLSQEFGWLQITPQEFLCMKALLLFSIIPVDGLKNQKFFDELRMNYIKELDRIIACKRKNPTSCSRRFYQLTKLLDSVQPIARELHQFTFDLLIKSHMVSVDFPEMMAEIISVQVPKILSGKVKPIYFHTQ
Kind of experiment: biochemical assays (not further specified). Conditions: compound coupled from the second-peak acid (RT=21 min).

Turning to `Cc1cnc(F)c(CNC(=O)C(O)(c2ccccc2)C(F)(F)C(F)(F)F)c1` (single isomer, unassigned) [Example 3-2, (2R or 2S)-3,3,4,4,4-pentafluoro-N-[(2-fluoro-5-methylpyridin-3-yl)methyl]-2-hydroxy-2-phenylbutanamide], the “activity in the biochemical assays” value is on record as “active”.
